Test system: EGFR
Experiment: Test Example 7: antigen binding activity by in vitro ARG (^89Zr-labeled Pmab)
Parameters: species or system human
Settings: day after production

binding activity for EGFR: confirmed
Substance: Comparative Example 3: ^89Zr-panitumumab conjugate (monovalent) by the CCAP method

From EP4682173A1, “METHOD FOR PRODUCING RADIOLABELED ANTIBODY, RADIOLABELED ANTIBODY, AND RADIOACTIVE MEDICINE” (Kagoshima University, priority 2023, dated 2024)
